Measured values: the NIST ThermoML archive (doi:10.1021/acs.jced.8b00524)

Experiment: xn = mol fraction of the nth substance listed
Conditions: 100 kPa, Liquid; for viscosity: Concentric cylinders viscometry; for mass density: Vibrating tube method

CCCCCCCO [heptan-1-ol] + CCCCOC(C)=O
Conditions | mass density [kg/m3] | viscosity [mPa·s]
293.15 K, x2 = 0 | 822.2 | 7.03
293.15 K, x2 = 0.0819 | 826.3 | 6.17
293.15 K, x2 = 0.1604 | 830.3 | 5.46
293.15 K, x2 = 0.2399 | 834.5 | 4.81
293.15 K, x2 = 0.3497 | 840.6 | 4.03
293.15 K, x2 = 0.4399 | 845.7 | 3.47
293.15 K, x2 = 0.5743 | 853.6 | 2.72
293.15 K, x2 = 0.6496 | 858.2 | 2.34
293.15 K, x2 = 0.7391 | 863.8 | 1.92
293.15 K, x2 = 0.8491 | 870.9 | 1.41
293.15 K, x2 = 0.9385 | 876.8 | 1.01
298.15 K, x2 = 0 | 818.7 | 5.92
298.15 K, x2 = 0.0819 | 822.6 | 5.17
298.15 K, x2 = 0.1604 | 826.4 | 4.56
298.15 K, x2 = 0.2399 | 830.5 | 3.99
298.15 K, x2 = 0.3497 | 836.3 | 3.33
298.15 K, x2 = 0.4399 | 841.3 | 2.86
298.15 K, x2 = 0.5743 | 849 | 2.25
298.15 K, x2 = 0.6496 | 853.5 | 1.95
298.15 K, x2 = 0.7391 | 859 | 1.61
298.15 K, x2 = 0.8491 | 865.9 | 1.22
298.15 K, x2 = 0.9385 | 871.8 | 0.9
303.15 K, x2 = 0 | 815.2 | 5.03
303.15 K, x2 = 0.0819 | 818.8 | 4.37
303.15 K, x2 = 0.1604 | 822.5 | 3.84
303.15 K, x2 = 0.2399 | 826.3 | 3.35
303.15 K, x2 = 0.3497 | 831.9 | 2.78
303.15 K, x2 = 0.4399 | 836.7 | 2.4
303.15 K, x2 = 0.5743 | 844.2 | 1.89
303.15 K, x2 = 0.6496 | 848.6 | 1.65
303.15 K, x2 = 0.7391 | 853.9 | 1.38
303.15 K, x2 = 0.8491 | 860.8 | 1.06
303.15 K, x2 = 0.9385 | 866.6 | 0.81
308.15 K, x2 = 0 | 811.6 | 4.3
308.15 K, x2 = 0.0819 | 815 | 3.73
308.15 K, x2 = 0.1604 | 818.4 | 3.26
308.15 K, x2 = 0.2399 | 822.1 | 2.84
308.15 K, x2 = 0.3497 | 827.4 | 2.36
308.15 K, x2 = 0.4399 | 832.1 | 2.03
308.15 K, x2 = 0.5743 | 839.3 | 1.61
308.15 K, x2 = 0.6496 | 843.6 | 1.41
308.15 K, x2 = 0.7391 | 848.9 | 1.19
308.15 K, x2 = 0.8491 | 855.7 | 0.94
308.15 K, x2 = 0.9385 | 861.4 | 0.73
313.15 K, x2 = 0 | 808 | 3.71
313.15 K, x2 = 0.0819 | 811 | 3.19
313.15 K, x2 = 0.1604 | 814.2 | 2.78
313.15 K, x2 = 0.2399 | 817.6 | 2.42
313.15 K, x2 = 0.3497 | 822.7 | 2.01
313.15 K, x2 = 0.4399 | 827.1 | 1.74
313.15 K, x2 = 0.5743 | 834.1 | 1.4
313.15 K, x2 = 0.6496 | 838.3 | 1.23
313.15 K, x2 = 0.7391 | 843.5 | 1.06
313.15 K, x2 = 0.8491 | 850.3 | 0.85
313.15 K, x2 = 0.9385 | 856 | 0.67
318.15 K, x2 = 0 | 804.4 | 3.21
318.15 K, x2 = 0.0819 | 807.2 | 2.75
318.15 K, x2 = 0.1604 | 810.1 | 2.4
318.15 K, x2 = 0.2399 | 813.3 | 2.08
318.15 K, x2 = 0.3497 | 818.1 | 1.73
318.15 K, x2 = 0.4399 | 822.3 | 1.49
318.15 K, x2 = 0.5743 | 829.2 | 1.22
318.15 K, x2 = 0.6496 | 833.3 | 1.09
318.15 K, x2 = 0.7391 | 838.4 | 0.94
318.15 K, x2 = 0.8491 | 845.1 | 0.77
318.15 K, x2 = 0.9385 | 850.9 | 0.62
323.15 K, x2 = 0 | 800.7 | 2.79
323.15 K, x2 = 0.0819 | 803.2 | 2.4
323.15 K, x2 = 0.1604 | 806 | 2.09
323.15 K, x2 = 0.2399 | 808.9 | 1.81
323.15 K, x2 = 0.3497 | 813.5 | 1.5
323.15 K, x2 = 0.4399 | 817.6 | 1.3
323.15 K, x2 = 0.5743 | 824.2 | 1.06
323.15 K, x2 = 0.6496 | 828.2 | 0.95
323.15 K, x2 = 0.7391 | 833.2 | 0.83
323.15 K, x2 = 0.8491 | 839.9 | 0.7
323.15 K, x2 = 0.9385 | 845.7 | 0.58
